# Measured values from the METLIN SMRT retention time set (Domingo-Almenara et al. 2019).
# Assay: gradient 5% acetonitrile 3 min, to 50% in 2 min, to 85% in 15 min, held 3 min, 100 µL/min
# Conditions: column: Zorbax Extend-C18 2.1 x 50 mm; eluents: water / acetonitrile, 0.1% formic acid
# Summary of the method: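 Pure standards were analyzed in mixtures of ~100 molecules using HPLC coupled to a quadrupole time-of-flight mass spectrometer, in both positive and negative ionization mode. Separation used a Zorbax Extend-C18 column (2.1 × 50 mm, 1.8 μm) at 100 μL/min, with water and acetonitrile each containing 0.1% formic acid. Dead and dwell volumes were 40 μL and 900 μL, and data were collected over 3 months. Retention time was read from computationally picked adduct peaks, each inspected manually.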
row,RP-LC retention time [s],SMILES
1,614,COC(=O)c1ccc(NC(=O)CN2CCc3[nH]c4c(OC)ccc(Cl)c4c(=O)c3C2)cc1
2,642,Cc1ccc(C(=O)NCC2CCCO2)cc1 (stereo not drawn)
3,1290,CCOc1nc2ccccc2nc1N1CCCC(C(=O)Nc2cccc(Cl)c2)C1 (stereo not drawn)
4,1190,O=S(=O)(c1ccc(-c2noc(-c3cccc(Br)c3)n2)cc1)N1CCOCC1
5,920,Cc1cc(C)n(-c2ccnc(N3CCC(C(=O)N4CCC(C)CC4)CC3)n2)n1
6,1100,CCCCNc1cc(C)nc2nc(-c3ccc(C(C)(C)C)cc3)nn12
7,1260,Cc1ccc(C)c(-c2csc(Cc3nc(-c4ccc5c(c4)OCO5)no3)n2)c1
8,609,CCCc1cc(N2CCN(C(=O)c3ccc(C#N)cc3)CC2)nc2nncn12
9,924,CCc1ccccc1NC(=O)N1CCc2nc(-c3ccccc3)ncc2C1
10,1170,O=C(NCc1ccccc1F)c1c(O)c2cccnc2n(-c2cccc(F)c2)c1=O
11,637,CCc1nnc(-c2ccc(S(=O)(=O)N3CCN(C4CCCCC4)CC3)o2)o1
12,656,NC(=O)C1CCN(C(=O)c2ccc(Cl)c(Cl)c2)CC1
13,1370,CCOC(=O)c1c(C)oc2nc(C)nc(NCc3ccc(CC)cc3)c12
14,556,Cn1c(CCNC(=O)c2cn3ccccc3n2)nc2ccccc21
15,679,Cn1nc(C(=O)N2CCC(C(=O)N3CCCC3)CC2)c2c1CCN(C(=O)Cc1ccc(F)cc1)C2
16,870,O=C(Cn1c(=O)c2cc(-c3cccs3)nn2c2ncccc21)Nc1ccc(F)cc1
17,744,COC(=O)c1c(NCCc2c[nH]c3ccccc23)c2ccccc2[nH]c1=O
18,585,CCN(Cc1ccc(OC)cc1)Cc1cc(=O)n2ccccc2n1
19,822,CCOc1ccc2c(n1)CCN(C(=O)NC1CCCCC1)C2
20,563,O=C(c1ccccc1Br)N1CCc2nc[nH]c2C1
21,679,Cc1nnc(N2CCN(C(=O)Nc3ccc4c(c3)OCCO4)CC2)c2nn(-c3ccccc3)c(C)c12
22,630,Cc1ccc(Cl)cc1NC(=O)Cn1ncc2c(N3CCN(c4ccccn4)CC3)ncnc21

row,RP-LC retention time [s],SMILES
1,816,O=C(c1cccs1)N1CCC2(CC1)NC(=O)N(Cc1ccc(Cl)cc1)C2=O
2,694,COc1cccc(C2CC(c3ccc(C)c(C)c3)=NC3(CCN(C(C)=O)CC3)N2)c1O (stereo not drawn)
3,689,Clc1ccc(-c2ccc(CNCc3ccccn3)o2)cc1
4,796,CC(C)NC(=O)C1CCN(c2nc3ccc(-c4ccsc4)nc3s2)CC1
5,678,COCC(=O)N1CCCN(c2cc(=O)n(C(C)C)c(=O)n2C(C)C)CC1
6,698,CC(C)N(C(=O)Cn1c(CNC(=O)c2ccco2)nc2ccccc21)c1ccccc1
7,686,Cc1cc(C)n2nc(SCC(=O)Nc3ccccc3[N+](=O)[O-])nc2n1
8,872,Cc1cccc(N2C(=O)CN(Cc3ccccc3C)[C@H]3CS(=O)(=O)C[C@H]32)c1
9,623,Cn1c(=O)c(=O)n(C)c2cc(N3CCOCC3)c(NC(=O)C3CC3)cc21
10,905,O=C(Cn1ccc2ccc(N3CCOCC3)nc21)NCc1ccccc1Cl
11,815,O=C(Nc1nnc(SCc2nnc(-c3ccc4c(c3)OCO4)o2)s1)c1cccs1
12,844,CC(C)Oc1ccc(CNC(=O)C2CCCN(c3nn4c(=O)c5c(nc4s3)CCCC5)C2)cc1 (stereo not drawn)
13,1040,COc1ccc(-c2nc3cnccn3c2Nc2ccc(C)cc2Br)cc1
14,814,CC(C)(Oc1ccc(Cl)cc1)C(=O)NCCNc1cc(-n2cccn2)ncn1
15,630,O=C(Nc1ccc2c(c1)OCCO2)C1CCN(c2cc(N3CCCC3)ncn2)CC1
16,979,COc1ccc(CC(=O)N2CCc3cc(-c4noc(C)n4)ccc32)cc1Cl
17,772,CCOC(=O)c1ccc(Nc2nc(N3CCCC3)nc(N3CCCC3)n2)cc1
18,671,Cc1cc(C)nc(NC(=O)NCCCSc2ccccn2)n1
19,782,COc1ccc(-c2nc3ccc(C)cn3c2Nc2ccc(Cl)cc2)cc1
20,596,O=C(c1csc(-c2ccc(N3CCCC3)nc2)n1)N1CCCC1
21,722,CCCn1c(=O)sc2cc(S(=O)(=O)N3CCN(C(=O)C4CCN(C(C)=O)CC4)CC3)ccc21
22,575,Cc1ccc(NC(=O)N2CCc3nc[nH]c3C2)cc1

row,RP-LC retention time [s],SMILES
1,752,CC(C)NC(=O)C1CCN(c2nc3ccc(-c4ccc(F)cc4)nc3s2)CC1
2,856,O=C(NCc1ccccc1Cl)c1ccc2c(c1)CCN2C(=O)C1CC1
3,1080,CCN1C(=O)c2cc(S(=O)(=O)Nc3ccc(C)cc3C)ccc2Oc2cccnc21
4,750,CCOc1ccc(NC(=O)C2CC(=O)N(c3ccc4c(c3)CCN4C(C)=O)C2)cc1 (stereo not drawn)
5,1080,COc1cc(/C=C2/C(=O)N(c3ccccc3)N=C2C)ccc1OCC(=O)Nc1ccccc1
6,689,O=C(Nc1cc(F)ccc1F)N1CCCC(Cn2c(C3CC3)nc3cccnc32)C1 (stereo not drawn)
7,1010,CCCn1c(=O)sc2cc(S(=O)(=O)N3CCC(C(=O)Nc4cccc(C)c4)CC3)ccc21
8,690,CCc1ccc(S(=O)(=O)N2CCN(CCc3cn(CC)c4ncccc34)CC2)cc1
9,822,CCOC(=O)c1cc(S(=O)(=O)N2CCCC2C(=O)N2CCCCCC2)cn1C (stereo not drawn)
10,633,COCCN1C(=O)[C@H]2CN(Cc3cccc(Cl)c3)C[C@H]2C1=O
11,681,O=C(Cc1ccc(NC(=O)c2ccc(F)cc2Cl)cc1)NC1CC1
12,618,CC1(C)CC(NC(=O)COc2ccccc2Cl)CC(C)(C)N1
13,696,COc1ccc(NS(=O)(=O)c2cc3n(c2)CCN(C)C3=O)cc1Cl
14,1120,N#Cc1ccc(NC(=O)C2CCCN(S(=O)(=O)c3cc(-c4noc(C5CCC5)n4)cs3)C2)cc1 (stereo not drawn)
15,625,COc1cc(NC(=O)Cn2ccnc2-c2ccnc(N3CCOCC3)c2)cc(OC)c1
16,678,O=C1CCCc2c1cc(C(=O)NCc1ccccn1)c(=O)n2-c1ccc(C(F)(F)F)cc1
17,1080,CCOC(=O)c1c(C)c(C(=O)OCC)n(C)c1C
18,783,CC1(C(=O)NCc2ccccc2)Cn2cnc(C(=O)NCc3ccccc3F)c2C(=O)N1C1CC1 (stereo not drawn)
19,663,CCOC(=O)N1CCC(NC(=O)CCc2cc3cc(OC)ccc3[nH]c2=O)CC1
20,782,O=C(C1=CN(c2cccc(Cl)c2)c2ccccc2S1(=O)=O)N1CCOCC1
21,971,Cc1ccc(NC(=O)N2CCC(C(C)C(=O)Nc3cccc(Cl)c3)CC2)cc1 (stereo not drawn)
22,1180,COc1ccc(C2Cn3nnc(-c4nc(-c5ccc(F)c(F)c5)no4)c3CO2)cc1 (stereo not drawn)

row,RP-LC retention time [s],SMILES
1,769,Cc1noc2ncn(CC(=O)NCc3ccc(Cl)cc3)c(=O)c12
2,970,COc1ccc(-c2nnc(-c3cc(S(=O)(=O)N(C)C)ccc3Cl)o2)cc1
3,606,O=C(NCc1cccc(F)c1)N1CCC(Nc2cccnc2)C1 (stereo not drawn)
4,834,Cc1cc(C)c(S(=O)(=O)N2CC(F)(F)C[C@H]2COc2cccnc2)c(C)c1
5,1060,CCc1ccc(NC(=O)C2CCN(S(=O)(=O)c3ccc4c(c3)sc(=O)n4C(C)C)CC2)cc1
6,695,CCOc1ccc(NC(=O)C2=C(C)NC(=O)NC2c2ccc([N+](=O)[O-])cc2)cc1 (stereo not drawn)
7,847,COc1cc(NC(=O)c2cc(C)n3nc(C)cc3n2)cc(OC)c1OC
8,754,Cc1ccc(C)c(NC(=O)COc2nc(C)nc3ccccc23)c1
9,709,CSc1ccc(CNC(=O)c2[nH]c3cc(C)sc3c2CN2CCOCC2)cc1
10,676,O=C(Cc1cccs1)N1CCc2nn(CC3CC3)c(=O)n2CC1
11,1010,O=C(NCCc1ccc(Cl)cc1)c1nnc(-c2ccc(S(=O)(=O)N3CCCC3)cc2)o1
12,700,Cc1ccc2nc(-c3c(F)cccc3Cl)c(Nc3ccc4c(c3)OCO4)n2c1
13,734,O=C(NCC(O)c1ccsc1)Nc1cccc(Cl)c1 (stereo not drawn)
14,792,COc1cc(OC)cc(C(=O)N2C[C@@H]3C[C@H]2C[C@@H]3NS(=O)(=O)c2ccccc2)c1
15,861,Cc1ccccc1CC(=O)N1CCCC(COc2cccc(C(=O)NC3CC3)c2)C1 (stereo not drawn)
16,946,Cc1cc(C(=O)Nc2ccc(Cl)cc2)n(CC(=O)Nc2ccc(F)cc2)n1
17,600,CN1CCN(CCNC(=O)c2cc(-c3ccccc3)cn2C)CC1
18,720,CC(C)OCCCNC(=O)C1CCCN(S(=O)(=O)c2ccc3c(ccn3C)c2)C1 (stereo not drawn)
19,831,CO[C@H]1C(=O)N(C(C)C)[C@H]1C1CCN(S(=O)(=O)c2cccc3nsnc23)CC1
20,888,Cc1ccc(OCC(=O)Nc2ccc(-c3nc(-c4cc(C)ccc4C)co3)cc2)cc1

row,SMILES,RP-LC retention time [s]
1,CCCN(CCC)[C@@H]1CCc2c(OC)cccc2[C@@H]1C,802
2,CCOc1ccc(CNc2nc3ccccc3n2CCN(CC)CC)cc1,1300
